This note sets out measurements from article PMC12775434, “Ultra-large virtual screening unveils potent agonists of the neuromodulatory orphan receptor GPR139” (Nature Communications, 2025).

Each structure is given as a SMILES string. Several values for one entry are separate records, joined by “and”; a condition that tells them apart may be missing. Identical values can stand only once. Like-named read-outs stand apart in the source and are kept apart here.

Holding throughout (assay type): cell-based
Assay [1] deals with T1, human muscarinic acetylcholine M1 receptor (M1R) (Homo sapiens, UniProt P11229).
T1 sequence (P11229 1-460): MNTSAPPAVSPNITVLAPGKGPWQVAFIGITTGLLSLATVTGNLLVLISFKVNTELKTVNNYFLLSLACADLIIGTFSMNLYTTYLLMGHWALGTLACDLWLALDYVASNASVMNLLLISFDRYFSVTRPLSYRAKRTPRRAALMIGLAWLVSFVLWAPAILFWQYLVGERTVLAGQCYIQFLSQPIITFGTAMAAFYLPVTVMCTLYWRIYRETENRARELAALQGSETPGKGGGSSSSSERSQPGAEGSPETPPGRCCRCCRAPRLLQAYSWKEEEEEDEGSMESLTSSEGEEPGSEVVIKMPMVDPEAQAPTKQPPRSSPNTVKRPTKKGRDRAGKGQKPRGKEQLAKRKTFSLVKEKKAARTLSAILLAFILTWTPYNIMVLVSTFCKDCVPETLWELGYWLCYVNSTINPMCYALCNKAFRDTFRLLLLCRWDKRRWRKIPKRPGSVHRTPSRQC
The experiment in a line: Ca2+ mobilization counter-screen in M1R-CHOk1 cells.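 Note: 10 µM test compound.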 The essentials: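 Intracellular calcium flux was measured by fluorescence (485 nm excitation, 525 nm emission) at 37 °C after automated compound addition following baseline, with final DMSO ≤0.3%. CHO-K1 cells stably expressing human M1R were plated 20–24 h beforehand. Cells were dye-loaded with 2 µM Fluo-4 AM for 1 h in pH 7.4 HEPES/HBSS containing 2.5 mM probenecid.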

Assay [2] concerns the target T2, GPR139 (Homo sapiens, UniProt Q6DWJ6).
T2 sequence (Q6DWJ6 1-353): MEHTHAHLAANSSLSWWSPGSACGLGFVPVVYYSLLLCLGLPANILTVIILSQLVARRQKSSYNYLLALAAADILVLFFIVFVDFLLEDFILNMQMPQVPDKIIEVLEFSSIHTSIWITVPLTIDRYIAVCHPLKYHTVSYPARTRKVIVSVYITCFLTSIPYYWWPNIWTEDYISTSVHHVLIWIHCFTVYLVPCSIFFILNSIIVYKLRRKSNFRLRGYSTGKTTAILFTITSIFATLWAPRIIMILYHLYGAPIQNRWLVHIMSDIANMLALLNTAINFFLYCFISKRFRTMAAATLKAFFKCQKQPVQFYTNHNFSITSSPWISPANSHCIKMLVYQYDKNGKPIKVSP
The experiment in a line: Ca2+ mobilization assay, antagonist mode (EC80 800 nM Lundbeck Cmp 1a after 20 min preincubation), GPR139-CHOk1. The essentials: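 Antagonist mode: 800 nM (EC80) reference agonist Lundbeck Cmp 1a added following 20 min pre-incubation with 10 µM compound. GPR139-CHOk1 cells, Fluo-4 dye, probenecid-containing HEPES buffer pH 7.4; intracellular Ca2+ measured at 37 °C (ex 485, em 525 nm).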

Assay [3] has as its target T2, GPR139. Put plainly: Ca2+ mobilization assay, agonist mode, stable GPR139-CHOk1 cell line. The following applies: for Emax: Supplementary Table 2, normalized to Lundbeck Cmp 1a, mean ± SEM, read-out: Emax (%) Ca2+. The essentials: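 Agonist activity of compounds is assessed in stably transfected CHO-K1 cells using the calcium dye Fluo-4 at 37 °C in HEPES-buffered HBSS (pH 7.4). Efficacy is expressed relative to the reference agonist Lundbeck Cmp 1a, set as 100%.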

Setting [4] is: GPR139-CHOk1, read-out: EC50, Ca2+ mobilization.

Turning to `COc1cc(OC)cc(C(=O)NNC(=O)Nc2cccc3ccccc23)c1` [Lundbeck Cmp 1a, reference compound], the “Ca2+ signal (% of Carbachol)” value in assay [1] (10 µM, individual replicates (Supplementary Figure 2)) is -13 % of Carbachol and 8 % of Carbachol; in assay [1] (10 µM, individual replicates (Supplementary Figure 5)), -0.591 % of Carbachol and 1.3 % of Carbachol and 0.449 % of Carbachol. Further, the “Ca2+ signal (% of Cmp 1a)” value in assay [2] (10 µM compound + 800 nM Cmp 1a, individual replicates) was 6.33 % of Cmp 1a and 14 % of Cmp 1a and 11 % of Cmp 1a; in assay [2] (Vehicle + 800 nM Cmp 1a, individual replicates), 92 % of Cmp 1a and 84 % of Cmp 1a and 83 % of Cmp 1a; in assay [2] (Vehicle + 10 µM Cmp 1a, individual replicates) it was 100 % of Cmp 1a; in assay [3] (log [Compound] M -4.5, replicate experiments), 104 % of Cmp 1a and 101 % of Cmp 1a and 98 % of Cmp 1a and 116 % of Cmp 1a and 117 % of Cmp 1a and 88 % of Cmp 1a and 112 % of Cmp 1a and 95 % of Cmp 1a and 103 % of Cmp 1a and 94 % of Cmp 1a; in assay [3] (log [Compound] M -5.0, replicate experiments), 104 % of Cmp 1a and 115 % of Cmp 1a and 107 % of Cmp 1a and 118 % of Cmp 1a and 110 % of Cmp 1a and 88 % of Cmp 1a and 112 % of Cmp 1a and 119 % of Cmp 1a; in assay [3] (log [Compound] M -5.5, replicate experiments), 96 % of Cmp 1a and 113 % of Cmp 1a and 100 % of Cmp 1a and 95 % of Cmp 1a and 84 % of Cmp 1a and 88 % of Cmp 1a and 114 % of Cmp 1a and 103 % of Cmp 1a and 108 % of Cmp 1a and 126 % of Cmp 1a. For the same molecule, the “Ca2+ signal (% of Cmp 1a)” value in assay [3] (log [Compound] M -6.0, replicate experiments) was 81 % of Cmp 1a and 96 % of Cmp 1a and 87 % of Cmp 1a and 69 % of Cmp 1a and 82 % of Cmp 1a and 73 % of Cmp 1a and 84 % of Cmp 1a and 75 % of Cmp 1a and 88 % of Cmp 1a and 109 % of Cmp 1a; in assay [3] (log [Compound] M -6.5, replicate experiments), 63 % of Cmp 1a and 62 % of Cmp 1a and 65 % of Cmp 1a and 67 % of Cmp 1a and 53 % of Cmp 1a and 60 % of Cmp 1a and 76 % of Cmp 1a and 64 % of Cmp 1a and 68 % of Cmp 1a; in assay [3] (log [Compound] M -7.0, replicate experiments), 38 % of Cmp 1a (2×) and 39 % of Cmp 1a; in assay [3] (log [Compound] M -7.5, replicate experiments) it was 20 % of Cmp 1a and 15 % of Cmp 1a and 23 % of Cmp 1a and 11 % of Cmp 1a and 2.33 % of Cmp 1a and 22 % of Cmp 1a and 19 % of Cmp 1a and 29 % of Cmp 1a and 16 % of Cmp 1a and 35 % of Cmp 1a; in assay [3] (log [Compound] M -8.0, replicate experiments), 1.56 % of Cmp 1a and 5 % of Cmp 1a and 17 % of Cmp 1a and -13 % of Cmp 1a and 8 % of Cmp 1a and 12 % of Cmp 1a and 9 % of Cmp 1a and 3 % of Cmp 1a and 6.33 % of Cmp 1a; in assay [3] (log [Compound] M -8.5, replicate experiments) it was -0.447 % of Cmp 1a and 1.52 % of Cmp 1a and 10 % of Cmp 1a and -20 % of Cmp 1a and 2.33 % of Cmp 1a and 11 % of Cmp 1a and 4.67 % of Cmp 1a and -2 % of Cmp 1a and -1 % of Cmp 1a and 5 % of Cmp 1a and 23 % of Cmp 1a. Further, the “Ca2+ signal (% of Cmp 1a)” value in assay [3] (log [Compound] M -9.0, replicate experiments) was -1.54 % of Cmp 1a and 0.497 % of Cmp 1a and 16 % of Cmp 1a and -12 % of Cmp 1a and 8 % of Cmp 1a and 9 % of Cmp 1a and 3.33 % of Cmp 1a and 13 % of Cmp 1a and 11 % of Cmp 1a. The EC50 in assay [3] (setting [4]) was 200 nM; in assay [3] (Supplementary Table 7, enantiopure compounds, read-out: pEC50, Ca2+ mobilization (converted)), 158 nM. In assay [3], the Emax was 108 ± 3%.
With `COc1ccccc1-c1nc(CC(=O)NC(C)c2ccccc2)no1` (stereo not shown) [Compound 1.2, COC1=C(C2=NC(CC(NC(C3=CC=CC=C3)C)=O)=NO2)C=CC=C1], in assay [1] (individual replicates (Supplementary Figure 5)), the “Ca2+ signal (% of Carbachol)” value was -21 % of Carbachol and 0.491 % of Carbachol and -3.3 % of Carbachol. For the same molecule, the “Ca2+ signal (% of Cmp 1a)” value in assay [2] (individual replicates (Supplementary Figure 4)) is 2 % of Cmp 1a and 4 % of Cmp 1a and 3.33 % of Cmp 1a; in assay [3] (Agonist mode, individual replicates (Supplementary Figure 4)), 84 % of Cmp 1a and 90 % of Cmp 1a and 64 % of Cmp 1a; in assay [3] (log [Compound] M = -4.5, individual replicate columns), 101 % of Cmp 1a and 98 % of Cmp 1a and 89 % of Cmp 1a and 111 % of Cmp 1a and 113 % of Cmp 1a; in assay [3] (log [Compound] M = -5.0, individual replicate columns) it was 95 % of Cmp 1a and 88 % of Cmp 1a and 96 % of Cmp 1a and 108 % of Cmp 1a (2×); in assay [3] (log [Compound] M = -5.5, individual replicate columns), 86 % of Cmp 1a and 100 % of Cmp 1a and 98 % of Cmp 1a and 101 % of Cmp 1a and 103 % of Cmp 1a; in assay [3] (log [Compound] M = -6.0, individual replicate columns), 77 % of Cmp 1a (2×) and 83 % of Cmp 1a and 90 % of Cmp 1a and 93 % of Cmp 1a. The “Ca2+ signal (% of Cmp 1a)” value in assay [3] (log [Compound] M = -6.5, individual replicate columns) is 65 % of Cmp 1a and 81 % of Cmp 1a and 77 % of Cmp 1a and 70 % of Cmp 1a and 86 % of Cmp 1a; in assay [3] (log [Compound] M = -7.0, individual replicate columns) it was 63 % of Cmp 1a (2×) and 64 % of Cmp 1a and 53 % of Cmp 1a and 56 % of Cmp 1a; in assay [3] (log [Compound] M = -7.5, individual replicate columns) it was 46 % of Cmp 1a and 38 % of Cmp 1a and 39 % of Cmp 1a and 41 % of Cmp 1a and 52 % of Cmp 1a; in assay [3] (log [Compound] M = -8.0, individual replicate columns) it was 14 % of Cmp 1a and 11 % of Cmp 1a (2×) and 15 % of Cmp 1a and 18 % of Cmp 1a; in assay [3] (log [Compound] M = -8.5, individual replicate columns), 3.23 % of Cmp 1a and -2.25 % of Cmp 1a and 2.37 % of Cmp 1a and 7.37 % of Cmp 1a and 3.35 % of Cmp 1a; in assay [3] (log [Compound] M = -9.0, individual replicate columns), 5 % of Cmp 1a and -0.0349 % of Cmp 1a and -0.541 % of Cmp 1a and 0.358 % of Cmp 1a and 0.331 % of Cmp 1a. In addition, in assay [3] (Ca2+ mobilization EC50), the “fold improved potency compared to compound 1” value was 3 fold. The EC50 in assay [3] (setting [4]) is 50 nM. In addition, the Emax in assay [3] stood at 116 ± 6%.
